Test system: MCF-7
Test: Cell cycle analysis by flow cytometry (propidium iodide)
Type: cell-based, human
Conditions: MCF7 and U2OS with siRNA knockdown; data not shown

O=c1[nH]cc(F)c(=O)[nH]1 [5-fluorouracil]
cell cycle arrest response (control): potent p53-dependent cell cycle arrest response
